Reference: the NIST ThermoML archive (doi:10.1021/acs.jced.6b00178)
Numbers after ± are expanded uncertainties.

Experiment: xn = mol fraction of the nth substance listed
Settings: 100 kPa, Liquid; for viscosity: Concentric cylinders viscometry; for mass density: Vibrating tube method

## CCCC[n+]1ccn(C)c1.O=S(=O)([N-]S(=O)(=O)C(F)(F)F)C(F)(F)F + CCCCn1cc[n+](C)c1.F[B-](F)(F)F
283.15 K, x1 = 0.25
  viscosity: 200.83 ± 11 mPa·s
  mass density: 1291.2 ± 0.7 kg/m3
283.15 K, x1 = 0.498
  viscosity: 158.06 ± 8.3 mPa·s
  mass density: 1355.8 ± 0.7 kg/m3
283.15 K, x1 = 0.751
  viscosity: 127.96 ± 6.6 mPa·s
  mass density: 1409.1 ± 0.7 kg/m3
283.15 K, x1 = 1
  viscosity: 106.77 ± 5.5 mPa·s
  mass density: 1451.8 ± 0.8 kg/m3
288.15 K, x1 = 0.25
  viscosity: 149.79 ± 7.8 mPa·s
  mass density: 1287.1 ± 0.7 kg/m3
288.15 K, x1 = 0.498
  viscosity: 119.67 ± 6.2 mPa·s
  mass density: 1351.4 ± 0.7 kg/m3
288.15 K, x1 = 0.751
  viscosity: 97.87 ± 5 mPa·s
  mass density: 1404.4 ± 0.7 kg/m3
288.15 K, x1 = 1
  viscosity: 82.16 ± 4.2 mPa·s
  mass density: 1446.9 ± 0.8 kg/m3
293.15 K, x1 = 0.25
  viscosity: 114.12 ± 5.9 mPa·s
  mass density: 1283.1 ± 0.7 kg/m3
293.15 K, x1 = 0.498
  viscosity: 92.47 ± 4.7 mPa·s
  mass density: 1347.1 ± 0.7 kg/m3
293.15 K, x1 = 0.751
  viscosity: 76.33 ± 3.9 mPa·s
  mass density: 1399.8 ± 0.7 kg/m3
293.15 K, x1 = 1
  viscosity: 64.53 ± 3.3 mPa·s
  mass density: 1442.1 ± 0.8 kg/m3
298.15 K, x1 = 0.25
  viscosity: 88.56 ± 4.5 mPa·s
  mass density: 1279.1 ± 0.7 kg/m3
298.15 K, x1 = 0.498
  viscosity: 72.77 ± 3.7 mPa·s
  mass density: 1342.8 ± 0.7 kg/m3
298.15 K, x1 = 0.751
  viscosity: 60.64 ± 3.1 mPa·s
  mass density: 1395.1 ± 0.7 kg/m3
298.15 K, x1 = 1
  viscosity: 51.6 ± 2.6 mPa·s
  mass density: 1437.2 ± 0.8 kg/m3
303.15 K, x1 = 0.25
  viscosity: 69.91 ± 3.5 mPa·s
  mass density: 1275.1 ± 0.7 kg/m3
303.15 K, x1 = 0.498
  viscosity: 58.24 ± 2.9 mPa·s
  mass density: 1338.5 ± 0.7 kg/m3
303.15 K, x1 = 0.751
  viscosity: 48.97 ± 2.5 mPa·s
  mass density: 1390.5 ± 0.7 kg/m3
303.15 K, x1 = 1
  viscosity: 41.93 ± 2.1 mPa·s
  mass density: 1432.4 ± 0.7 kg/m3
308.15 K, x1 = 0.25
  viscosity: 56.12 ± 2.8 mPa·s
  mass density: 1271.2 ± 0.7 kg/m3
308.15 K, x1 = 0.498
  viscosity: 47.31 ± 2.4 mPa·s
  mass density: 1334.2 ± 0.7 kg/m3
308.15 K, x1 = 0.751
  viscosity: 40.14 ± 2 mPa·s
  mass density: 1386 ± 0.7 kg/m3
308.15 K, x1 = 1
  viscosity: 34.59 ± 1.7 mPa·s
  mass density: 1427.6 ± 0.7 kg/m3
313.15 K, x1 = 0.25
  viscosity: 45.7 ± 2.3 mPa·s
  mass density: 1267.3 ± 0.7 kg/m3
313.15 K, x1 = 0.498
  viscosity: 38.96 ± 2 mPa·s
  mass density: 1329.9 ± 0.7 kg/m3
313.15 K, x1 = 0.751
  viscosity: 33.35 ± 1.7 mPa·s
  mass density: 1381.5 ± 0.7 kg/m3
313.15 K, x1 = 1
  viscosity: 28.91 ± 1.5 mPa·s
  mass density: 1422.8 ± 0.7 kg/m3
318.15 K, x1 = 0.25
  viscosity: 37.72 ± 1.9 mPa·s
  mass density: 1263.4 ± 0.7 kg/m3
318.15 K, x1 = 0.498
  viscosity: 32.48 ± 1.6 mPa·s
  mass density: 1325.7 ± 0.7 kg/m3
318.15 K, x1 = 0.751
  viscosity: 28.05 ± 1.4 mPa·s
  mass density: 1376.9 ± 0.7 kg/m3
318.15 K, x1 = 1
  viscosity: 24.46 ± 1.2 mPa·s
  mass density: 1418.1 ± 0.7 kg/m3
323.15 K, x1 = 0.25
  viscosity: 31.52 ± 1.6 mPa·s
  mass density: 1259.5 ± 0.7 kg/m3
323.15 K, x1 = 0.498
  viscosity: 27.36 ± 1.4 mPa·s
  mass density: 1321.4 ± 0.7 kg/m3
323.15 K, x1 = 0.751
  viscosity: 23.85 ± 1.2 mPa·s
  mass density: 1372.4 ± 0.7 kg/m3
323.15 K, x1 = 1
  viscosity: 20.91 ± 1.1 mPa·s
  mass density: 1413.4 ± 0.7 kg/m3
328.15 K, x1 = 0.25
  viscosity: 26.63 ± 1.3 mPa·s
  mass density: 1255.6 ± 0.6 kg/m3
328.15 K, x1 = 0.498
  viscosity: 23.29 ± 1.2 mPa·s
  mass density: 1317.2 ± 0.7 kg/m3
328.15 K, x1 = 0.751
  viscosity: 20.48 ± 1 mPa·s
  mass density: 1368 ± 0.7 kg/m3
328.15 K, x1 = 1
  viscosity: 18.05 ± 0.91 mPa·s
  mass density: 1408.7 ± 0.7 kg/m3
333.15 K, x1 = 0.25
  viscosity: 22.71 ± 1.1 mPa·s
  mass density: 1251.8 ± 0.6 kg/m3
333.15 K, x1 = 0.498
  viscosity: 20.02 ± 1 mPa·s
  mass density: 1313.1 ± 0.7 kg/m3
333.15 K, x1 = 0.751
  viscosity: 17.75 ± 0.89 mPa·s
  mass density: 1363.5 ± 0.7 kg/m3
333.15 K, x1 = 1
  viscosity: 15.72 ± 0.79 mPa·s
  mass density: 1404 ± 0.7 kg/m3
338.15 K, x1 = 0.25
  viscosity: 19.58 ± 0.99 mPa·s
  mass density: 1248 ± 0.6 kg/m3
338.15 K, x1 = 0.498
  viscosity: 17.36 ± 0.87 mPa·s
  mass density: 1308.9 ± 0.7 kg/m3
338.15 K, x1 = 0.751
  viscosity: 15.51 ± 0.78 mPa·s
  mass density: 1359.1 ± 0.7 kg/m3
338.15 K, x1 = 1
  viscosity: 13.8 ± 0.69 mPa·s
  mass density: 1399.3 ± 0.7 kg/m3
343.15 K, x1 = 0.25
  viscosity: 17.02 ± 0.86 mPa·s
  mass density: 1244.2 ± 0.6 kg/m3
343.15 K, x1 = 0.498
  viscosity: 15.19 ± 0.76 mPa·s
  mass density: 1304.8 ± 0.7 kg/m3
343.15 K, x1 = 0.751
  viscosity: 13.66 ± 0.69 mPa·s
  mass density: 1354.8 ± 0.7 kg/m3
343.15 K, x1 = 1
  viscosity: 12.2 ± 0.61 mPa·s
  mass density: 1394.7 ± 0.7 kg/m3
348.15 K, x1 = 0.25
  viscosity: 14.91 ± 0.75 mPa·s
  mass density: 1240.4 ± 0.6 kg/m3
348.15 K, x1 = 0.498
  viscosity: 13.38 ± 0.67 mPa·s
  mass density: 1300.7 ± 0.7 kg/m3
348.15 K, x1 = 0.751
  viscosity: 12.11 ± 0.61 mPa·s
  mass density: 1350.4 ± 0.7 kg/m3
348.15 K, x1 = 1
  viscosity: 10.86 ± 0.55 mPa·s
  mass density: 1390.1 ± 0.7 kg/m3
353.15 K, x1 = 0.25
  viscosity: 13.15 ± 0.66 mPa·s
  mass density: 1236.7 ± 0.6 kg/m3
353.15 K, x1 = 0.498
  viscosity: 11.84 ± 0.6 mPa·s
  mass density: 1296.6 ± 0.7 kg/m3
353.15 K, x1 = 0.751
  viscosity: 10.81 ± 0.54 mPa·s
  mass density: 1346 ± 0.7 kg/m3
353.15 K, x1 = 1
  viscosity: 9.72 ± 0.49 mPa·s
  mass density: 1385.5 ± 0.7 kg/m3
358.15 K, x1 = 0.25
  viscosity: 11.66 ± 0.59 mPa·s
  mass density: 1233 ± 0.6 kg/m3
358.15 K, x1 = 0.498
  viscosity: 10.55 ± 0.53 mPa·s
  mass density: 1292.6 ± 0.7 kg/m3
358.15 K, x1 = 0.751
  viscosity: 9.688 ± 0.49 mPa·s
  mass density: 1341.7 ± 0.7 kg/m3
358.15 K, x1 = 1
  viscosity: 8.754 ± 0.44 mPa·s
  mass density: 1381 ± 0.7 kg/m3
363.15 K, x1 = 0.25
  viscosity: 10.42 ± 0.52 mPa·s
  mass density: 1229.3 ± 0.6 kg/m3
363.15 K, x1 = 0.498
  viscosity: 9.467 ± 0.48 mPa·s
  mass density: 1288.6 ± 0.7 kg/m3
363.15 K, x1 = 0.751
  viscosity: 8.733 ± 0.44 mPa·s
  mass density: 1337.5 ± 0.7 kg/m3
363.15 K, x1 = 1
  viscosity: 7.926 ± 0.4 mPa·s
  mass density: 1376.4 ± 0.7 kg/m3
